Numbered stars: 1 amine (or outer) side, 2 acyl side, 3 side chain; on linkers, the order of the positions; unused ones are H or OH. Bridge positions count the residues as written; N and C are the ends. Square brackets hold non-standard residues; d marks the D form. Ends that are not written are not given here. Peptide text beside a SMILES is read from it. X9 = O=C(C[C@H](C(=O)[*:2])C1CCCCC1)[C@@H]1CCCN1[*:1]; Trp(7-aza) = N[C@@H](Cc1c[nH]c2ncccc12)C(=O)O; X3 = O=C(C(Cc1ccc(Br)s1)N[*:1])[*:2]; mXylylene = c1cc(C[*:1])cc(C[*:2])c1; NMeY = CN[C@@H](Cc1ccc(O)cc1)C(=O)O; NMeT = CN[C@H](C(=O)O)[C@@H](C)O; X2 = O=C(Cc1cccc(C[*:2])c1)[*:1]; dPhg = N[C@@H](C(=O)O)c1ccccc1; Chg = N[C@H](C(=O)O)C1CCCCC1; Pen = CC(C)(S)[C@H](N)C(=O)O; Phg = N[C@H](C(=O)O)c1ccccc1; Tle = CC(C)(C)[C@H](N)C(=O)O; NMeS = CN[C@@H](CO)C(=O)O; Nle = CCCC[C@H](N)C(=O)O; Dab = NCC[C@H](N)C(=O)O; Nva = CCC[C@H](N)C(=O)O; Thp = NC1(C(=O)O)CCOCC1; Mpa = O=C(O)CCS

For the experiment, the target named is T1, human plasma kallikrein (Homo sapiens, UniProt P03952).
T1 construct: purchased Enzyme Research Laboratories HPKa 1303
T1 sequence (P03952 20-390 limits assumed): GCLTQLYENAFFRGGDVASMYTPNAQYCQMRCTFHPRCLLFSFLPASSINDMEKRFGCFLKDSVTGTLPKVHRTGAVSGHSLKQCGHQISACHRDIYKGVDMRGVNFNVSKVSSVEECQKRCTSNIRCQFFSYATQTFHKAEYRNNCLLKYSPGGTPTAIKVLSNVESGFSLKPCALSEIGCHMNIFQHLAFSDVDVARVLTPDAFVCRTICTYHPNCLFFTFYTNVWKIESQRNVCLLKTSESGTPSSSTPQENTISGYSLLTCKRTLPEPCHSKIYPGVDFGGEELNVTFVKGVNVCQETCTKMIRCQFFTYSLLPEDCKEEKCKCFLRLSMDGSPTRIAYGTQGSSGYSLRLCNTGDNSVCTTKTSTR
T1 sequence (P03952 391-638 limits assumed): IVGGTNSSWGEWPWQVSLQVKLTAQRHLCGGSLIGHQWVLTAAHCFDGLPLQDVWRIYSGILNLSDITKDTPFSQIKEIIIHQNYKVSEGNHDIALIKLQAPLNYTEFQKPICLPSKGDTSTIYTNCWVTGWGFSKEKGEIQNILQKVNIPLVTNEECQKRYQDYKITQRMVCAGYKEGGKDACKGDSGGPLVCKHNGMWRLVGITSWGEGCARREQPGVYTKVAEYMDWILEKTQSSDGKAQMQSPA
Description: Enzyme inhibition assay (fluorogenic substrate H-Pro-Phe-Arg-AMC). The experiment is classed as biochemical. The settings on record: Kallikrein inhibitory activity; 1 nM activated human kallikrein, 500 μM H-Pro-Phe-Arg-AMC, 1 hour room temperature; read-out: Avg. IC50. The method, then:
Activated human plasma kallikrein (Enzyme Research Laboratories, HPKa 1303) was reacted with H-Pro-Phe-Arg-7-amido-4-methylcoumarin (H-Pro-Pre-Arg-AMC) (a fluorogenic substrate for plasma as well as pancreatic and urinary kallikreins; Bachem I-1295) and candidate inhibitory peptides to determine the IC50 of the inhibitor.
Ten 8-fold serial dilutions of peptides (10 mM DMSO stocks) were performed in DMSO and then added to TCNB (50 mM Tris-HCl pH 7.2, 150 mM NaCl, 10 mM CaCl2, 0.05% Brij-35) and sonicated. 50 μL of the peptide dilutions were added to microtitre plates (96 well, black non-binding surface, Corning, 3650) and incubated for 5 minutes at room temperature with 4 nM activated human kallikrein (final concentration after addition of fluorogenic substrate: 1 nM). The samples were then incubated for 1 hour at room temperature with 2 mM H-Pro-Phe-Arg-AMC (final concentration 500 μM). Relative Fluorescence Units (RFU) were measured at excitation/emission 360 nm/460 nm by a SpectraMax M3.
For the molecule `CC(C)(C)[C@H](NC(=O)C(Cc1ccc(Br)s1)NC(=O)[C@@H]1CSCc2cccc(c2)CSCCC(=O)N2CCC[C@H]2C(=O)N[C@H](c2ccccc2)C(=O)N1)C(N)=O` (stereo partly drawn) [Compound R2220, [mXylyl(1,4)](des-NH2)C-P-(D-Phg)-C-ABP-Tbg-NH2] ([Mpa]P[dPhg]C[X3][Tle]-NH2; linker 1-4 via mXylylene), the IC50 is greater than 100000 nM.

For `CC(C)(C)[C@H](NC(=O)[C@H](CCCNC(=N)N)NC(=O)[C@@H]1CCCc2cccc(c2)OCCCC(=O)N2CCC[C@H]2C(=O)N[C@@H](C2CCCCC2)C(=O)N1)C(N)=O` [Compound R2263], the IC50 is greater than 100000 nM.

For the molecule `CC[C@H](C)[C@@H]1NC(=O)[C@H](CO)NC(=O)[C@H](CCC(=O)O)NC(=O)[C@@H](NC(=O)[C@@H](N)CCSC)CSCc2cccc(c2)CSC[C@@H](C(=O)N[C@@H](CCCNC(=N)N)C(=O)N[C@H](C(=O)N[C@@H](CC(C)C)C(=O)N[C@@H](CCCNC(=N)N)C(=O)N[C@@H](Cc2ccc(O)cc2)C(=O)N[C@@H](CO)C(=O)N[C@@H](CCC(=O)O)C(N)=O)C(C)C)NC1=O` [Compound R2004, [mXylyl(2,6)]MCESICRVLRYSE-NH2] (H-MCESICRVLRYSE-NH2; linker 2-6 via mXylylene), the IC50 was 0.501 nM.

For `CC(=O)N[C@H](C(=O)N[C@H]1CSCc2cccc(c2)CSC[C@@H](C(N)=O)NC(=O)[C@H](C)NC(=O)[C@H](C(C)C)NC(=O)[C@H](CCCNC(=N)N)NC1=O)C1CCCCC1` [Compound R2159, [mXylyl(2,6)]Ac-Chg-CR-V-AC-NH2] (Ac-[Chg]CRVAC-NH2; linker 2-6 via mXylylene), the IC50 is greater than 20100 nM.

For the molecule “MCNYWSP-NH2 [Compound R2115, MCNYWSP-NH2]”, the concentration for half-maximal inhibition (IC50) was greater than 17300 nM.

On to `CC(C)(C)[C@H](NC(=O)[C@H](CCN)NC(=O)[C@@H]1CSCc2cccc(c2)CSCCC(=O)N2CCC[C@H]2C(=O)N[C@H](c2ccccc2)C(=O)N1)C(N)=O` [Compound R2212, [mXylyl(1,4)](des-NH2)C-P-(D-Phg)-C-Dab-Tbg-NH2] ([Mpa]P[dPhg]C[Dab][Tle]-NH2; linker 1-4 via mXylylene), for which the IC50 was greater than 100000 nM.

As to `C[C@@H]1NC(=O)C2(CCOCC2)NC(=O)CCSCc2cccc(c2)CSC[C@@H](C(=O)N[C@@H](Cc2c[nH]c3ncccc23)C(=O)N[C@H](C(N)=O)C(C)(C)C)NC(=O)[C@H](C2CCCCC2)NC1=O` [Compound R2147, [mXylyl(1,5)](des-NH2)C-AcPyr-A-Chg-C-AzaTrp-Tbg-NH2] ([Mpa][Thp]A[Chg]C[Trp(7-aza)][Tle]-NH2; linker 1-5 via mXylylene), the concentration for half-maximal inhibition (IC50) is greater than 2190 nM.

As to `CC(C)(C)[C@H](NC(=O)[C@H](CCCNC(=N)N)NC(=O)[C@@H]1CSCc2cccc(c2)CC(=O)N[C@@H](CCC(=O)O)C(=O)N2CCC[C@H]2C(=O)N[C@@H](C2CCCCC2)C(=O)N1)C(N)=O` [Compound R2264] (EP[Chg]CR[Tle]-NH2; linker N-4 via X2), the IC50 was 1100 nM.

With `CC(C)(C)[C@H](NC(=O)[C@H](CCCNC(=N)N)NC(=O)[C@@H]1CCOc2cccc(c2)OCCCC(=O)N2CCC[C@H]2C(=O)N[C@@H](C2CCCCC2)C(=O)N1)C(N)=O` [Compound R2256], the IC50 was greater than 100000 nM.

For the molecule `CC(C)(C)[C@H](NC(=O)[C@H](CCCNC(=N)N)NC(=O)[C@@H]1CSCc2cccc(c2)CSCCC(=O)N2CCC[C@H]2C(=O)N[C@H](c2ccccc2)C(=O)N1)C(N)=O` [Compound R2187, [mXylyl(1,4)](des-NH2)C-P-(D)Phg-CR-Tbg-NH2] ([Mpa]P[dPhg]CR[Tle]-NH2; linker 1-4 via mXylylene), the IC50 is greater than 4700 nM.

With `CC(C)(C)[C@H](NC(=O)[C@H](CCCNC(=N)N)NC(=O)[C@@H]1CCn2cc(nn2)CCCCCC(=O)N2CCC[C@H]2C(=O)N[C@@H](C2CCCCC2)C(=O)N1)C(N)=O` [Compound R2251], the IC50 is greater than 100000 nM.

Regarding `CC(=O)N[C@@H](CS)C(=O)N[C@@H](CC(N)=O)C(=O)N[C@@H](Cc1ccc(O)cc1)C(=O)N[C@@H](Cc1c[nH]c2ccccc12)C(=O)N[C@@H](CO)C(=O)N1CCC[C@H]1C(=O)N[C@H](Cc1c[nH]c2ccccc12)C(=O)N[C@H](C(=O)N[C@@H](C)C(=O)N[C@@H](CS)C(N)=O)[C@@H](C)O` [Compound R2228, Ac-CNYWSPwTAC-NH2] (Ac-CNYWSP[dW]TAC-NH2), the IC50 is greater than 10600 nM.

As for `CC(=O)N[C@H]1CSSC[C@@H](C(N)=O)NC(=O)[C@H](C)NC(=O)[C@H]([C@@H](C)O)N(C)C(=O)[C@H](Cc2c[nH]c3ccccc23)NC(=O)[C@@H]2CCCN2C(=O)[C@H](CO)N(C)C(=O)[C@H](Cc2c[nH]c3ccccc23)NC(=O)[C@H](Cc2ccc(O)cc2)N(C)C(=O)[C@H](CC(N)=O)NC1=O` [Compound R2224, [cyclo(1,10)]Ac-CN-nMeY-W-nMeS-PW-nMeT-AC-NH2] (Ac-CN[NMeY]W[NMeS]PW[NMeT]AC-NH2; disulfide 1-10), the IC50 was greater than 100000 nM.

For the molecule `CC(C)(C)[C@H](NC(=O)[C@H](CCCNC(=N)N)NC(=O)[C@@H]1CSCc2cccc(c2)CSCCC(=O)N2CCC[C@H]2C(=O)C[C@@H](C2CCCCC2)C(=O)N1)C(N)=O` [Compound R2247] ([Mpa][X9]CR[Tle]-NH2; linker 1-3 via mXylylene), the IC50 was determined as 474 nM.

Turning to `CC(C)(C)[C@H](NC(=O)[C@H](CCCNC(=N)N)NC(=O)[C@@H]1CSCc2cccc(c2)CSCCC(=O)N2CCC[C@H]2C(=O)N[C@@H](c2ccccc2)C(=O)N1)C(N)=O` [Compound R2188, [mXylyl(1,4)](des-NH2)C-P-Phg-CR-Tbg-NH2] ([Mpa]P[Phg]CR[Tle]-NH2; linker 1-4 via mXylylene), the IC50 amounted to 3.4 nM.

For `CC(=O)N[C@@H](CS)C(=O)N[C@@H](CC(N)=O)C(=O)N[C@@H](Cc1ccc(O)cc1)C(=O)N[C@@H](Cc1c[nH]c2ccccc12)C(=O)N[C@@H](CO)C(=O)N1CCC[C@H]1C(=O)N[C@@H](Cc1c[nH]c2ccccc12)C(=O)N[C@H](C(=O)N[C@@H](CCC(=O)O)C(=O)N[C@@H](CS)C(=O)N[C@@H](CO)C(=O)N[C@@H](C)C(N)=O)[C@@H](C)O` [Compound R2116, Ac-CNYWSPWTECSA-NH2] (Ac-CNYWSPWTECSA-NH2), the IC50 came out at 3.5 nM.

In the case of `CC(=O)N[C@@H](CS)C(=O)N[C@@H](CC(N)=O)C(=O)N[C@@H](Cc1ccc(O)cc1)C(=O)N[C@@H](Cc1c[nH]c2ccccc12)C(=O)N(C)[C@@H](CO)C(=O)N1CCC[C@H]1C(=O)N[C@@H](Cc1c[nH]c2ccccc12)C(=O)N[C@H](C(=O)N[C@@H](C)C(=O)N[C@@H](CS)C(N)=O)[C@@H](C)O` [Compound R2237, Ac-CNYW-nMeS-PWTAC-NH2] (Ac-CNYW[NMeS]PWTAC-NH2), the 50% inhibitory concentration (IC50) was greater than 13900 nM.

On to `CCC[C@H](N)C(=O)N[C@@H]1C(=O)N[C@@H](CCC(=O)O)C(=O)N[C@@H](CO)C(=O)N[C@@H]([C@@H](C)CC)C(=O)N[C@H](C(=O)N[C@@H](CCCNC(=N)N)C(=O)N[C@H](C(N)=O)C(C)C)C(C)(C)SCc2cccc(c2)CSC1(C)C` [Compound R2034, [mXylyl(2,6)]Nvl-Pen-ESI-Pen-RV-NH2] (H-[Nva][Pen]ESI[Pen]RV-NH2; linker 2-6 via mXylylene), for which the IC50 is greater than 100000 nM.

On to `CCCC[C@@H]1NC(=O)[C@@H](NC(C)=O)CSCc2cccc(c2)CSC[C@@H](C(=O)N[C@@H](CCCNC(=N)N)C(=O)N[C@H](C(N)=O)C(C)(C)C)NC(=O)[C@H](c2ccccc2)NC(=O)[C@H](CO)NC1=O` [Compound R2065, [mXylyl(1,5)]Ac-C-Nle-S-Phg-CR-Tbg-NH2] (Ac-C[Nle]S[Phg]CR[Tle]-NH2; linker 1-5 via mXylylene), for which the IC50 was 6.1 nM.

One may read the IC50 as the midpoint of a concentration-inhibition curve.

(Values after patent US9999650B2, “Peptide and peptidomimetic inhibitors” (Ra Pharmaceuticals, Inc., priority 2012, dated 2018).)
